Test results from patent publication US20070161697A1, “Hydrazide type compounds and the use thereof in pharmaceutical compositions for the treatment of cardiovascular diseases” (priority 2004, published 2007).

Experiments:
[1] = tested on: ApoE negative mice; assay: Histological analysis of the aortic lesions (atheroma plaque) of ApoE negative mice; assay type: in vivo; details: aorta of treated vs untreated mice; FIG. 6
Source text: (§1) Firstly, mice devoid of the coding gene for Apo lipoprotein E (ApoE −/−) have been used. These mice represent a model of choice of studying early atherosclerosis and development of a plaque rich in foamy macrophages. Male C57BL/6J mice homozygote for deletion of the ApoE gene were subjected to a normal dietary regimen until the age of eight weeks. These mice (n=8 per group) subsequently received ad libitum and for 12 weeks either a dietary regimen not enriched with cholesterol or fat, or an enriched regimen, containing 1.5 g/kg of cholesterol and 200 g/kg of fat of milk origin. The untreated mice underwent daily intraperitoneal injections of a solution containing DMSO at 10%. The treated mice received by intraperitoneal injection the same solution containing 2 or 20 μg (i.e. 0.1 mg/kg/day or 1 mg/kg/day) of the compound CGP 02-01. Following the blood sample for the biochemical analyses, the mice were killed.
The aortas of the mice are fixed with paraformaldehyde and are dissected into 10 μm sections for histological analysis of the lesions (FIG. 6).

[2] = tested on: rats; assay: Hyperglycaemia test (glucose tolerance) in rats on fructose-rich regimen; assay type: in vivo; details: oral, glucose shock after 14th day, FIG. 18
Source text: Rats (n=12) were subjected to a dietary regimen rich in fructose (10%) for 21 days. After the 14th day, hyperglycaemic shock is induced by administration of 2 g/kg of glucose in the presence or absence of the compound CGP 02-01 administered via the oral route. The plasma glucose level is subsequently measured.

[3] = tested on: ApoE −/− mice; assay: Triglyceride deposit in the aortas of ApoE −/− mice; assay type: in vivo; details: control 185±33
Source text: as §1
The triglycerides which accumulate in the aortic wall were measured in the following manner: the aortas of the animals are rinsed with physiological saline after dissection. The lipid mass of the adventitia is eliminated by dissection and the intima media is dehydrated. The triglyceride level is measured and expressed as the weight of triglycerides per dry weight of tissue.

[4] = tested on: ApoE −/− mice; assay: Abdominal fatty mass, ApoE mice on regimen rich in cholesterol and fat; assay type: in vivo; details: 1 mg/kg, 3 months
Source text: as §1
ApoE mice subjected to a dietary regimen rich in cholesterol and fat were killed after 3 months of treatment with the compound CGP 02-01 at doses of 0.1 mg/kg and 1 mg/kg. The abdominal fatty mass was recovered by dissection, dried and expressed as dry weight.

[5] = tested on: Wistar rats; assay: Circulating triglycerides, rats on dietary regimen rich in fructose; assay type: in vivo; details: oral
Procedure: Secondly, the activity of the compound CGP 02-01 was studied using a reference rat-fructose model. Groups of Wistar rats (n=12) were subjected for 3 weeks to a dietary regimen containing […] of fructose. […] Groups of rats subsequently received by forced feeding 50 mg/kg of the compound CGP 02-01 dissolved in a 2% tween solution prepared in methylcellulose. The blood samples for the biochemical analyses were performed after 1, 2 and 3 weeks. Independent groups of rats wee treated under the same conditions with metformin hydrochloride at a dose of 50 mg/kg. The metformin served as a reference in this metabolic syndrome model. Assay of serum triglycerides may be performed enzymatically using the commercially available kit. One may use kits from Biomérieux for example (ref. 61.238). In summary, the triglycerides are treated with a lipase in order to generate fatty acids. In the presence of ATP, the glycerol is transformed by glycerokinase into glycerol 3 phosphate. The glycerol 3 phosphate is subsequently transformed into dihydroxyacetone in generating oxygenated water (H202) which may be detected by formation of quinoneimine in the presence of parachlorophenol, amino-4-antipyrin and peroxidase. The intensity of the quinoneimine coloration is subsequently measured at 505 nm. This coloration is proportional to the quantity of triglycerides present in the sample.

[6] = tested on: ApoE −/− mice; assay: Analysis of coronary ischaemia in ApoE −/− mice; assay type: in vivo; details: injected; normal or cholesterol-rich regimen; FIG. 15
Source text: as §1
After killing the ApoE −/− mice subjected to a normal dietary regimen or a dietary regimen rich in cholesterol, the hearts of these animals are observed macroscopically. The rate of ischaemic lesions is observed (FIG. 15) and quantified by the presence or absence of lesions (FIG. 16).

[7] = tested on: Wistar rats; assay: Insulin in plasma, rats on dietary regimen rich in fructose; assay type: in vivo; details: 50 mg/kg oral
Procedure: (§2) Secondly, the activity of the compound CGP 02-01 was studied using a reference rat-fructose model. Groups of Wistar rats (n=12) were subjected for 3 weeks to a dietary regimen containing […] of fructose. […] Groups of rats subsequently received by forced feeding 50 mg/kg of the compound CGP 02-01 dissolved in a 2% tween solution prepared in methylcellulose. The blood samples for the biochemical analyses were performed after 1, 2 and 3 weeks. Independent groups of rats wee treated under the same conditions with metformin hydrochloride at a dose of 50 mg/kg. The metformin served as a reference in this metabolic syndrome model. Assay of insulin in plasma may be performed by radioimmunological assay using commercially available kits comprising specific anti-insulin antibodies of mice or rats. One may for example use the rat/mouse ELISA kits, Linco research (ref. EZRMI-13K).

[8] = tested on: Wistar rats; assay: Plasma glucose level (glycaemia) in rats on fructose-rich regimen; assay type: in vivo; details: oral, 21 days of treatment, FIG. 17
Procedure: as §2, with “model.” for “model. Assay of insulin in plasma may be performed by radioimmunological assay using commercially available kits comprising specific anti-insulin antibodies of mice or rats. One may for example use the rat/mouse ELISA kits, Linco research (ref. EZRMI-13K).”

[9] = tested on: ApoE −/− mice; assay: Insulin in plasma, ApoE −/− mice on regimen rich in cholesterol; assay type: in vivo
Source text: as §1
Assay of insulin in plasma may be performed by radioimmunological assay using commercially available kits comprising specific anti-insulin antibodies of mice or rats. One may for example use the rat/mouse ELISA kits, Linco research (ref. EZRMI-13K).

COc1cc(O)c(/C=N/NC(=O)c2cc3ccccc3s2)c(OC)c1 [CGP02-01, N′-[(1E)-(2-hydroxy-4,6-dimethoxyphenyl)methylene]-1-benzothiophene-2-carbohydrazide]
Foamy macrophages and inflammatory reaction in the atheroma plaque [1]: significant reduction in these macrophages | Effect against induced hyperglycaemia (2 g/kg glucose) [2]: protective effect | Triglyceride deposit on the aortic wall ([3]; 0.1 mg/kg): 156 ± 31 µg/mg | Triglyceride deposit on the aortic wall ([3]; 1 mg/kg, three months, n=8): 131 ± 42 µg/mg (dry weight) | melting point: 205.4 °C | Reduction in abdominal fatty mass [4]: 48.3% | Abdominal fatty mass (dry weight) ([4]; control 760±231, p<0.01): 393 ± 78 mg | Plasma triglyceride level ([5]; 50 mg/kg, 3 weeks, control 1.39±0.13): 0.47 ± 0.07 g/L | Variation of plasma triglyceride level ([5]; p<0.01): 66.2% | Coronary ischaemic (cardiac) lesions [6]: considerably reduced | Variation (reduction) of insulin level [7]: 11.3% | Plasma insulin level ([7]; 3 weeks, control 1.85±0.04): 1.64 ± 0.03 ng/mL | Increase in glycaemia [8]: stabilises this increase in glycaemia | Variation of plasma insulin level ([9]; 0.1 or 1 mg/kg): 18.8% | Plasma insulin level ([9]; 0.1 or 1 mg/kg IP, 3 months, control 1.17±0.2, p<0.01): 0.95 ± 0.16 ng/mL
